Source: US20130324522A1, “INSECT ODORANT RECEPTOR ANTAGONISTS” (THE ROCKEFELLER UNIVERSITY, priority 2010, published 2013)

Legend:
Format in all cases: cell-based
[1] = target: OR8/OR7 (Anopheles gambiae, UniProt Q7PUT5+Q7QCC7); experiment: Ca2+-imaging of stable HEK293T cell line OR8/OR7; settings: for inhibition at 4 µM: HEK-293T, compound applied at 4 μM, read-out: Percent Inhibition OR8 OR7; for IC50: Table B, read-out: IC50 OR8
Procedure, shortened: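 Cells were HEK293T stably expressing mouse TRPM8 or a ligand-specific Anopheles OR plus OR7. Compounds were delivered in HBSS odorant solution.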

[2] = target: T1, mOREG (Mus musculus, UniProt Q920P2); experiment: Ca2+-imaging, control receptor mOREG; settings: for inhibition at 4 µM: compound applied at 4 μM, read-out: Percent Inhibition mOREG; for IC50: Table B
T1 sequence (Q920P2 1-313): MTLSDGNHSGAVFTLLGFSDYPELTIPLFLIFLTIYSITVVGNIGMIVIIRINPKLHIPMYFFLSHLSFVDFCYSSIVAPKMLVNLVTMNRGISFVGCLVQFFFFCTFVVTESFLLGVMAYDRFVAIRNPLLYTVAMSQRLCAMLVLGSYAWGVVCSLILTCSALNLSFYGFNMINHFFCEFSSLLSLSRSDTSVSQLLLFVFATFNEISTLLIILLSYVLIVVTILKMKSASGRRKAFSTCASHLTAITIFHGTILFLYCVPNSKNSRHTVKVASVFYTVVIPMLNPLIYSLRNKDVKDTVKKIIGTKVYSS
Procedure, shortened: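 Stable cell lines plated 2 days on poly-D-lysine, loaded with Ca-4 dye 1.5 hr at room temperature, then challenged with odorant in HBSS containing pre-added compounds. Intracellular Ca2+ rise followed by real-time fluorescence, 485 nm excitation/525 nm emission; HBSS and ligand wells serve as negative and positive controls.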

[3] = target: T2, serotonin receptor (5HT3) (Mus musculus, UniProt P23979); experiment: Ca2+-imaging of stable Flip-In T-Rex cell line 5HT3; settings: for inhibition at 4 µM: compound applied at 4 μM, read-out: Percent Inhibition 5HT3; for IC50: Table B, read-out: IC50 5HT3
T2 construct: Full-length cDNAs for mosquito (Anopheles gambiae) odorant receptor; expressed in transfected cells
T2 sequence (P23979 24-489): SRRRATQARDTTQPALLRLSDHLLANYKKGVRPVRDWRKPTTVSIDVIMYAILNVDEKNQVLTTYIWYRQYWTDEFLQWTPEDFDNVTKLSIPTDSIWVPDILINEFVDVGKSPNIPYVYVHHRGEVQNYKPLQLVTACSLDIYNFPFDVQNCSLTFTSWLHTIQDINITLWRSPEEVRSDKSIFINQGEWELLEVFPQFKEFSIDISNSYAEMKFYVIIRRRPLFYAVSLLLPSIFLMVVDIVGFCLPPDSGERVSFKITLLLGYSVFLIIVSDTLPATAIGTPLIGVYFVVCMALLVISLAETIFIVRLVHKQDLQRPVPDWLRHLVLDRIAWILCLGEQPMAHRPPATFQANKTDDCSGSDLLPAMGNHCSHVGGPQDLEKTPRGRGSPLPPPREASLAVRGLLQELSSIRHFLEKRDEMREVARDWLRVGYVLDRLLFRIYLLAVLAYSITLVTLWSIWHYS
Procedure, shortened: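 Flp-In T-REx stable lines (Drosophila Or47a/Or83b or mouse 5HT3), 10,000 cells/well cultured 2 days, induced with tetracycline 1 day before assay.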

Chain of OR8/OR7 (Q7QCC7 whole entry): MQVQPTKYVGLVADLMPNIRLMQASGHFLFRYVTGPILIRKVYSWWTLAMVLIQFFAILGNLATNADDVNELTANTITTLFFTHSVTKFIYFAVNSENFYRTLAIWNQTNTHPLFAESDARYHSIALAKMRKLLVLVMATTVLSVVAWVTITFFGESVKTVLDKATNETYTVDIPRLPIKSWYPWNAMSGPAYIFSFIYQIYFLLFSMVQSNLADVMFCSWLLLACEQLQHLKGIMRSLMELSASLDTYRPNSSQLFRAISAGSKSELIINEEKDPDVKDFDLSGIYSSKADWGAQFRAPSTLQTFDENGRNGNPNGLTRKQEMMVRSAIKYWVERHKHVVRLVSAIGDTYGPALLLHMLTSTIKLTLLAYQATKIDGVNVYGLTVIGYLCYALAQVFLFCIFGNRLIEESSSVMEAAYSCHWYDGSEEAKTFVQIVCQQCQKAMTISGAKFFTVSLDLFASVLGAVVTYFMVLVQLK
Chain of OR8/OR7 (Q7PUT5 entry or part of it): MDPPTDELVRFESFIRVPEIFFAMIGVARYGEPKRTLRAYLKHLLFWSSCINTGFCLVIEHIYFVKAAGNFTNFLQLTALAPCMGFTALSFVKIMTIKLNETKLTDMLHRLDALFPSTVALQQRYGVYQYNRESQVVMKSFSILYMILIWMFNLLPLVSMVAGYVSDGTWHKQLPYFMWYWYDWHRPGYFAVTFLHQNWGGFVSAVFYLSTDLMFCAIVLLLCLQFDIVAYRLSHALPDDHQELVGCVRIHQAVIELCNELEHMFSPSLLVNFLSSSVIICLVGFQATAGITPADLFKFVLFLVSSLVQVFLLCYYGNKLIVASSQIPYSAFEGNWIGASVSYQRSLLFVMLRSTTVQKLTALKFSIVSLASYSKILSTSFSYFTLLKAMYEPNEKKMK

Molecule Cc1ccc(CN(Cc2ccc(F)cc2)C(=O)CN(C(=O)NC(C)(C)C)C2CC2)s1 [RU-0052360] has an inhibition at 4 µM [1] of 51 to 74%, an IC50 [1] of over 1000 nM and an inhibition at 4 µM [2] of 26 to 50%. For the same molecule, the inhibition at 4 µM [3] was under 25%.

With CCOCCCN(CC(=O)N(Cc1ccc2c(c1)OCO2)Cc1sccc1C)C(=O)NC(C)(C)C [RU-0052340] the inhibition at 4 µM [1] was under 25%, the inhibition at 4 µM [2] was 26 to 50% and the inhibition at 4 µM [3] was under 25%.

CC(NCc1ccccc1)c1nc2ccccc2c(=O)n1-c1ccc(Cl)cc1 (stereo not drawn) [RU-0072535] was tested, and the inhibition at 4 µM [1] was under 25%, the inhibition at 4 µM [2] was 26 to 50% and the inhibition at 4 µM [3] was under 25%.

With COCCCN(CC(=O)N1CCc2sccc2C1COc1cccc(OC)c1)C(=O)Cc1ccccc1 (stereo not drawn) [RU-0036264] the inhibition at 4 µM [1] was 26 to 50%, the inhibition at 4 µM [2] was under 25% and the inhibition at 4 µM [3] was under 25%.

Molecule CCN(CC)C(=O)Oc1ccc2c(ccn2Cc2cccc(C)c2)c1NC(=O)[C@H](C)OC(C)=O [RU-0075468] has an inhibition at 4 µM [1] of under 25%, an IC50 [2] of under 100 nM and an inhibition at 4 µM [2] of over 75%. The inhibition at 4 µM [3] was under 25%.

In the case of COC(=O)C(Cc1ccccc1)NC(=O)C1CC1(c1ccccc1)c1ccccc1 (stereo not drawn) [RU-0028029], the inhibition at 4 µM [1] is reported as 51 to 74%, the IC50 [1] is reported as over 1000 nM and the inhibition at 4 µM [2] is reported as under 25%. For the same molecule, the inhibition at 4 µM [3] was 26 to 50%.

With COc1ccc(C(=O)c2ccccc2)c(O)c1O [RU-0001617] the inhibition at 4 µM [1] was under 25%, the inhibition at 4 µM [2] was under 25% and the inhibition at 4 µM [3] was 26 to 50%.

COc1cc(OC)cc(C2NC(=O)N(C)C3=C2C(=O)N(C2CCCCC2)C3)c1 (stereo not drawn) [RU-0047750] was tested, and the inhibition at 4 µM [1] was under 25%, the inhibition at 4 µM [2] was under 25% and the inhibition at 4 µM [3] was 26 to 50%.

CN(Cc1ccccc1)C(=O)CCC1CCN(C(=O)CCOc2ccccc2)CC1 [RU-0028727] showed an IC50 [2] of over 1000 nM, an inhibition at 4 µM [2] of 51 to 74% and an IC50 [3] of over 1000 nM. The inhibition at 4 µM [3] was 51 to 74%.

Molecule COCCNC(=O)c1ccc(CSc2nnc(-c3ccc(C)cc3)n2-c2ccccc2F)cc1 [RU-0051652] has an inhibition at 4 µM [1] of under 25%, an inhibition at 4 µM [2] of under 25% and an inhibition at 4 µM [3] of 26 to 50%.

Work on Cc1cc(C)c2c(c1C(=O)N1CCC3(CC1)C(=O)NCN3c1ccccc1)CC(C)(C)C2=O [RU-0025771] yielded an inhibition at 4 µM [2] of 26 to 50% and an inhibition at 4 µM [3] of 26 to 50%.

Molecule CCOc1ccccc1C(=O)NNC(=O)COc1cc(C)cc(C)c1 [RU-0023245] has an inhibition at 4 µM [2] of 26 to 50% and an inhibition at 4 µM [3] of 26 to 50%.

CCOC(=O)C(c1ccc(OC)c(OC)c1)C1C=CC(NC(=O)c2ccc3c(c2)OCO3)C1 (stereo not drawn) [RU-0049030] gave an inhibition at 4 µM [1] of 26 to 50%, an inhibition at 4 µM [2] of under 25% and an inhibition at 4 µM [3] of under 25%.

Molecule COc1ccccc1N1CCN(C(=O)c2cc3n(n2)CCN(Cc2c(F)cccc2Cl)C3=O)CC1 [RU-0043595] has an inhibition at 4 µM [1] of 26 to 50%, an IC50 [2] of over 1000 nM and an inhibition at 4 µM [2] of 51 to 74%. The IC50 [3] was over 1000 nM and the inhibition at 4 µM [3] was 51 to 74%.

Molecule CCCCc1nc(CN2CCc3c([nH]c4ccccc34)C2c2cccc(OC)c2OC)c[nH]1 (stereo not drawn) [RU-0031879] has an inhibition at 4 µM [1] of 26 to 50%, an inhibition at 4 µM [2] of 26 to 50% and an inhibition at 4 µM [3] of under 25%.

CCOC(=O)C(c1cccc(OC)c1)C1C=CC(NC(=O)c2cccs2)C1 (stereo not drawn) [RU-0074560] was tested, and the inhibition at 4 µM [1] was under 25%, the inhibition at 4 µM [2] was under 25% and the inhibition at 4 µM [3] was under 25%.

Work on COCCCN(CC(=O)N1CCc2sccc2C1c1ccc(OC)cc1)C(=O)C(C)(C)CCl (stereo not drawn) [RU-0069950] yielded an inhibition at 4 µM [1] of 26 to 50%, an IC50 [2] of over 1000 nM and an inhibition at 4 µM [2] of 51 to 74%. For the same molecule, the IC50 [3] was over 1000 nM and the inhibition at 4 µM [3] was 51 to 74%.

COc1ccc(N2CCN(C(=O)C3CC=CCC3C(=O)NC(c3ccccc3)c3ccccn3)CC2)cc1 (stereo not drawn) [RU-0026507] was tested, and the inhibition at 4 µM [1] was under 25%, the inhibition at 4 µM [2] was under 25% and the inhibition at 4 µM [3] was 26 to 50%.

For COCCCN(CC(=O)N1CCc2sccc2C1COc1cccc(OC)c1)C(=O)c1ccccc1OC (stereo not drawn) [RU-0036294], the inhibition at 4 µM [1] was 51 to 74%, the IC50 [1] was over 1000 nM and the inhibition at 4 µM [2] was 26 to 50%. It also gave an inhibition at 4 µM [3] of under 25%.

Cc1ccc(-n2nc(C)c(CCC(=O)N3CCc4ccccc4C3)c2C)cc1Cl [RU-0026074] gave an inhibition at 4 µM [2] of under 25% and an inhibition at 4 µM [3] of under 25%.

Work on C=C[C@@](C)(O)CCC1C(=C)CCC2[C@@](C)(CO)CCC[C@]12C (stereo partly drawn) [RU-0001327] yielded an inhibition at 4 µM [1] of 26 to 50%, an inhibition at 4 µM [2] of 26 to 50% and an inhibition at 4 µM [3] of 26 to 50%.

For CC(NC(=O)c1cc2n(n1)CCN(Cc1c(Cl)cccc1Cl)C2=O)c1ccccc1 (stereo not drawn) [RU-0045115], the inhibition at 4 µM [1] was under 25%, the inhibition at 4 µM [2] was 26 to 50% and the inhibition at 4 µM [3] was under 25%.

In the case of COc1ccc(-c2nnc(SCc3ccc(C#N)cc3)n2-c2ccc(C)cc2)cc1 [RU-0046426], the inhibition at 4 µM [1] is reported as 26 to 50%, the IC50 [2] is reported as over 1000 nM and the inhibition at 4 µM [2] is reported as 51 to 74%. For the same molecule, the inhibition at 4 µM [3] was 26 to 50%.

In the case of Cc1ccc(CN(CCc2ccccc2)C(=O)CN(C(=O)NC(C)(C)C)C(C)C)o1 [RU-0072008], the inhibition at 4 µM [1] is reported as under 25%, the inhibition at 4 µM [2] is reported as 26 to 50% and the inhibition at 4 µM [3] is reported as under 25%.

O=C1CN(S(=O)(=O)c2c(F)cc(F)cc2F)CC2c3cccc(F)c3CCN12 (stereo not drawn) [RU-0076832] showed an inhibition at 4 µM [1] of under 25%, an inhibition at 4 µM [2] of 26 to 50% and an inhibition at 4 µM [3] of 26 to 50%.

For COCCN(Cc1cc(Cl)ccc1OS(=O)(=O)c1ccc(F)cc1)C(=O)C1CCC1 [RU-0035287], the inhibition at 4 µM [1] was 26 to 50%, the inhibition at 4 µM [2] was 26 to 50% and the inhibition at 4 µM [3] was 26 to 50%.

COc1nc(NC(C)C)nc(NC(C)C)n1 [RU-0001534] was tested, and the inhibition at 4 µM [1] was 26 to 50%, the inhibition at 4 µM [2] was under 25% and the inhibition at 4 µM [3] was 26 to 50%.

For COc1nc(OCC#N)nc(N2CCCCC2)n1 [RU-0006256], the inhibition at 4 µM [1] was 51 to 74%, the IC50 [1] was over 1000 nM and the inhibition at 4 µM [2] was under 25%. The inhibition at 4 µM [3] was 26 to 50%.

CN(C)c1nc(N(C)C)nc(N(C)C)n1 [RU-0000619] gave an inhibition at 4 µM [1] of 26 to 50%, an IC50 [2] of over 1000 nM and an inhibition at 4 µM [2] of 51 to 74%. It also gave an inhibition at 4 µM [3] of 26 to 50%.

Work on COc1ccc(N2CCN(C(=O)C3CC=CCC3C(=O)NCCCCc3ccccc3)CC2)cc1 (stereo not drawn) [RU-0026167] yielded an inhibition at 4 µM [1] of 26 to 50%, an inhibition at 4 µM [2] of 26 to 50% and an inhibition at 4 µM [3] of under 25%.
